Test results taken from PubChem BioAssay (NCI).
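Abbreviation: GI50, concentration required for 50% inhibition of growth. TGI marks complete inhibition of growth.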

What was measured:
Assay in all cases: NCI-60 cell line screen, 384-well format
MOLT-4 leukemia = tested on: MOLT-4 leukemia
T-47D breast = tested on: T-47D breast
HT29 colon = tested on: HT29 colon
NCI-H522 lung = tested on: NCI-H522 lung
MCF7 breast = tested on: MCF7 breast
HCT-15 colon = tested on: HCT-15 colon
MDA-MB-231 breast = tested on: MDA-MB-231 breast
SW-620 colon = tested on: SW-620 colon
SK-MEL-28 melanoma = tested on: SK-MEL-28 melanoma
MDA-MB-468 breast = tested on: MDA-MB-468 breast
KM12 colon = tested on: KM12 colon
SR leukemia = tested on: SR leukemia
NCI-H226 lung = tested on: NCI-H226 lung
DU-145 prostate = tested on: DU-145 prostate
A549 NSCLC = tested on: A549 NSCLC
IGROV1 ovarian = tested on: IGROV1 ovarian
SF-295 CNS = tested on: SF-295 CNS
UACC-257 melanoma = tested on: UACC-257 melanoma
RXF 393 renal = tested on: RXF 393 renal
COLO 205 colon = tested on: COLO 205 colon
SK-OV-3 ovarian = tested on: SK-OV-3 ovarian
U251 glioblastoma = tested on: U251 glioblastoma
UO-31 renal = tested on: UO-31 renal
TK-10 renal = tested on: TK-10 renal
SF-268 CNS = tested on: SF-268 CNS
CAKI-1 renal = tested on: CAKI-1 renal
SNB-19 CNS = tested on: SNB-19 CNS
OVCAR-4 ovarian = tested on: OVCAR-4 ovarian
A498 renal = tested on: A498 renal
EKVX NSCLC = tested on: EKVX NSCLC
OVCAR-5 ovarian = tested on: OVCAR-5 ovarian
OVCAR-8 ovarian = tested on: OVCAR-8 ovarian
SNB-75 CNS = tested on: SNB-75 CNS
HCT-116 colon = tested on: HCT-116 colon
PC-3 prostate = tested on: PC-3 prostate
SF-539 CNS = tested on: SF-539 CNS
SK-MEL-5 melanoma = tested on: SK-MEL-5 melanoma
SN12C renal = tested on: SN12C renal
UACC-62 melanoma = tested on: UACC-62 melanoma
HOP-92 NSCLC = tested on: HOP-92 NSCLC
K-562 leukemia = tested on: K-562 leukemia
MALME-3M melanoma = tested on: MALME-3M melanoma
HS 578T breast = tested on: HS 578T breast
NCI-H322M lung = tested on: NCI-H322M lung
ACHN renal = tested on: ACHN renal
MDA-MB-435 melanoma = tested on: MDA-MB-435 melanoma
OVCAR-3 ovarian = tested on: OVCAR-3 ovarian
HOP-62 NSCLC = tested on: HOP-62 NSCLC
NCI-H23 lung = tested on: NCI-H23 lung
BT-549 breast = tested on: BT-549 breast
SK-MEL-2 melanoma = tested on: SK-MEL-2 melanoma
M14 melanoma = tested on: M14 melanoma
NCI-H460 NSCLC = tested on: NCI-H460 NSCLC
786-0 renal = tested on: 786-0 renal
HL-60(TB) leukemia = tested on: HL-60(TB) leukemia

In the case of Cn1cc(-c2ccc3c(c2)ncn3-c2cc(NS(=O)(=O)C3CC3)cc(-c3ccc(F)cc3F)c2)cn1, the GI50 (MOLT-4 leukemia) was 1.62 µM, the TGI (MOLT-4 leukemia) was 3.09 µM and the GI50 (T-47D breast) was 2.63 µM. It also gave a TGI (T-47D breast) of 13.7 µM, a GI50 (HT29 colon) of 3.01 µM and a TGI (HT29 colon) of 10.2 µM. For the same compound, the GI50 (NCI-H522 lung) was 1.8 µM, the TGI (NCI-H522 lung) was 6.87 µM and the GI50 (MCF7 breast) was 2.07 µM. It also gave a TGI (MCF7 breast) of 12.8 µM, a GI50 (HCT-15 colon) of 4.25 µM and a TGI (HCT-15 colon) of 24 µM. The GI50 (MDA-MB-231 breast) was 3.4 µM, the TGI (MDA-MB-231 breast) was > 100 µM and the GI50 (SW-620 colon) was 18 µM. For the same compound, the TGI (SW-620 colon) was > 100 µM, the GI50 (SK-MEL-28 melanoma) was 4.04 µM and the TGI (SK-MEL-28 melanoma) was 19.5 µM. The GI50 (MDA-MB-468 breast) was 1.71 µM, the TGI (MDA-MB-468 breast) was 6.44 µM and the GI50 (KM12 colon) was 3.4 µM. It also gave a TGI (KM12 colon) of 13.2 µM, a GI50 (SR leukemia) of 1.89 µM and a TGI (SR leukemia) of 3.7 µM. The GI50 (NCI-H226 lung) was 0.344 µM, the TGI (NCI-H226 lung) was 14.3 µM and the GI50 (DU-145 prostate) was 4.9 µM. For the same compound, the TGI (DU-145 prostate) was 40.2 µM, the GI50 (A549 NSCLC) was 3.42 µM and the TGI (A549 NSCLC) was > 100 µM. For the same compound, the GI50 (IGROV1 ovarian) was 2.02 µM, the TGI (IGROV1 ovarian) was 6.92 µM and the GI50 (SF-295 CNS) was 1.69 µM. The TGI (SF-295 CNS) was 4.14 µM, the GI50 (UACC-257 melanoma) was 3.02 µM and the TGI (UACC-257 melanoma) was 10.3 µM. For the same compound, the GI50 (RXF 393 renal) was 0.183 µM, the TGI (RXF 393 renal) was 2.06 µM and the GI50 (COLO 205 colon) was 11.7 µM. For the same compound, the TGI (COLO 205 colon) was 93.6 µM, the GI50 (SK-OV-3 ovarian) was 2.42 µM and the TGI (SK-OV-3 ovarian) was 10.8 µM. For the same compound, the GI50 (U251 glioblastoma) was 2.15 µM, the TGI (U251 glioblastoma) was 12.3 µM and the GI50 (UO-31 renal) was 1.73 µM. The TGI (UO-31 renal) was 7.66 µM, the GI50 (TK-10 renal) was 2.87 µM and the TGI (TK-10 renal) was 24.4 µM. For the same compound, the GI50 (SF-268 CNS) was 3.4 µM, the TGI (SF-268 CNS) was 61.3 µM and the GI50 (CAKI-1 renal) was 2.16 µM. The TGI (CAKI-1 renal) was > 100 µM, the GI50 (SNB-19 CNS) was 4.05 µM and the TGI (SNB-19 CNS) was > 100 µM. It also gave a GI50 (OVCAR-4 ovarian) of 2.26 µM, a TGI (OVCAR-4 ovarian) of 37.6 µM and a GI50 (A498 renal) of 2.36 µM. The TGI (A498 renal) was 6.03 µM, the GI50 (EKVX NSCLC) was 2.82 µM and the TGI (EKVX NSCLC) was 13.5 µM. For the same compound, the GI50 (OVCAR-5 ovarian) was 4.31 µM, the TGI (OVCAR-5 ovarian) was 79.4 µM and the GI50 (OVCAR-8 ovarian) was 4.79 µM. For the same compound, the TGI (OVCAR-8 ovarian) was 79.6 µM, the GI50 (SNB-75 CNS) was 0.29 µM and the TGI (SNB-75 CNS) was 3.53 µM. It also gave a GI50 (HCT-116 colon) of 2.79 µM, a TGI (HCT-116 colon) of 12.3 µM and a GI50 (PC-3 prostate) of 2.92 µM. It also gave a TGI (PC-3 prostate) of 9.54 µM, a GI50 (SF-539 CNS) of 0.305 µM and a TGI (SF-539 CNS) of 2.05 µM. It also gave a GI50 (SK-MEL-5 melanoma) of 3.28 µM, a TGI (SK-MEL-5 melanoma) of 15.7 µM and a GI50 (SN12C renal) of 2.51 µM. The TGI (SN12C renal) was > 100 µM, the GI50 (UACC-62 melanoma) was 6.3 µM and the TGI (UACC-62 melanoma) was 18.9 µM. It also gave a GI50 (HOP-92 NSCLC) of 2.03 µM, a TGI (HOP-92 NSCLC) of 12.4 µM and a GI50 (K-562 leukemia) of 1.81 µM. The TGI (K-562 leukemia) was 3.65 µM, the GI50 (MALME-3M melanoma) was 4.55 µM and the TGI (MALME-3M melanoma) was 15.2 µM. It also gave a GI50 (HS 578T breast) of 0.575 µM, a TGI (HS 578T breast) of 2.44 µM and a GI50 (NCI-H322M lung) of 3.3 µM. It also gave a TGI (NCI-H322M lung) of 20.7 µM, a GI50 (ACHN renal) of 2.5 µM and a TGI (ACHN renal) of 13.2 µM. For the same compound, the GI50 (MDA-MB-435 melanoma) was 4.37 µM, the TGI (MDA-MB-435 melanoma) was 72.8 µM and the GI50 (OVCAR-3 ovarian) was 3.15 µM. It also gave a TGI (OVCAR-3 ovarian) of 11.4 µM, a GI50 (HOP-62 NSCLC) of 2.39 µM and a TGI (HOP-62 NSCLC) of 10.8 µM. The GI50 (NCI-H23 lung) was 2.51 µM, the TGI (NCI-H23 lung) was 14.4 µM and the GI50 (BT-549 breast) was 1.03 µM. For the same compound, the TGI (BT-549 breast) was 9.21 µM, the GI50 (SK-MEL-2 melanoma) was 2.78 µM and the TGI (SK-MEL-2 melanoma) was 7.22 µM. The GI50 (M14 melanoma) was 4.6 µM, the TGI (M14 melanoma) was 47.3 µM and the GI50 (NCI-H460 NSCLC) was 2.48 µM. It also gave a TGI (NCI-H460 NSCLC) of 13.7 µM, a GI50 ([…]-0 renal) of 1.99 µM and a TGI (786-0 renal) of 4.95 µM. For the same compound, the GI50 (HL-60(TB) leukemia) was 3.2 µM and the TGI (HL-60(TB) leukemia) was 6.8 µM.
